This passage reports flash point results from a flash point compilation (Sun et al. 2020).

`COC(C)OC` [1,1-dimethoxyethane]: the flash point was -17 °C.

With `CC1(C)CCCCC1` [1,1-dimethylcyclohexane], the flash point was found to be 7 °C.

`Cc1ccc(C)c(C)c1C` [1,2,3,4-tetramethylbenzene] returned a flash point of 68 °C.

As to `Cc1ccc(C)c(C)c1` [1,2,4-trimethylbenzene], the flash point was found to be 46 °C.

For `CCC(O)CO` (stereo not given) [1,2-butanediol], the flash point came out at 93 °C.

The compound `Clc1ccccc1Cl` [1,2-dichlorobenzene] showed a flash point of 68 °C.

In turn, `CCC(Cl)CCl` (stereo not given) [1,2-dichlorobutane] had a flash point of 27 °C.

In the case of `ClCCCl` [1,2-dichloroethane], the flash point was 13 °C.

Consider `CC(Cl)CCl` (stereo not given) [1,2-dichloropropane], for which the flash point stood at 13 °C.

In turn, `Cc1ccc(F)cc1C` [1,2-dimethyl-4-fluorobenzene] yielded a flash point of 40 °C.

`OCCO` [1,2-ethanediol] registered a flash point of 108 °C.

Turning to `CCCCC(O)CO` (stereo not given) [1,2-hexanediol], the flash point was found to be 122 °C.

Take `CCCC(O)CO` (stereo not given) [1,2-pentanediol]: the flash point turned out to be 105 °C.

For `CC(N)CN` (stereo not given) [1,2-propanediamine], the flash point was determined as 33 °C.

As to `C1=CC=CC=CC=C1` [1,3,5,7-cyclooctatetraene], the flash point stood at 22 °C.

`Clc1cccc(Cl)c1` [1,3-dichlorobenzene] came in with a flash point of 63 °C.

`CC(C)c1cccc(C(C)C)c1` [1,3-diisopropylbenzene]: the flash point came to 76 °C.

For the compound `NCCCN` [1,3-propanediamine], the flash point is 48 °C.

`C1COCCO1` [1,4-dioxane] had a flash point of 11 °C.

On to `OCCCCCO` [1,5-pentanediol], for which the flash point turned out to be 129 °C.

`SCCCCCS` [1,5-pentanedithiol] displayed a flash point of 95 °C.

On to `C=CCCCCCC=C` [1,8-nonadiene], for which the flash point stood at 26 °C.

Regarding `CC(O)CN` (stereo not given) [1-amino-2-propanol], the flash point stood at 67 °C.

The compound `CCc1cccc(Br)c1` [1-bromo-3-ethylbenzene] registered a flash point of 71 °C.

The compound `CCCCCCCBr` [1-bromoheptane] returned a flash point of 61 °C.

In turn, `CCCCCCCCBr` [1-bromooctane] returned a flash point of 78 °C.

In the case of `CCCCCBr` [1-bromopentane], the flash point amounted to 30 °C.

As to `CCCCO` [1-butanol], the flash point was found to be 34 °C.

Compound `CCCCCC#CCCCCl` [1-chloro-4-decyne] yielded a flash point of 87 °C.

Take `CCCCCCCCCCCl` [1-chlorodecane]: the flash point was 83 °C.

Compound `CCCCCCCCCl` [1-chlorooctane] registered a flash point of 58 °C.

For `CCCCCCCCCCS` [1-decanethiol], the flash point turned out to be 99 °C.

For the compound `C=CCCCCCCCC` [1-decene], the flash point was found to be 38 °C.

In turn, `CCC1(C)CCCC1` [1-ethyl-1-methylcyclopentane] registered a flash point of 6 °C.

Compound `C=CCCCCC` [1-heptene] displayed a flash point of -9 °C.

Consider `C#CCCCCC` [1-heptyne], for which the flash point was -2 °C.

For the compound `CCCCCCO` [1-hexanol], the flash point amounted to 59 °C.

As for `C=CCCCC` [1-hexene], the flash point was -26 °C.

Compound `C#CCCCC` [1-hexyne] had a flash point of -20 °C.

In the case of `CCCCI` [1-iodobutane], the flash point stood at 33 °C.

Consider `CCC[N+](=O)[O-]` [1-nitropropane], for which the flash point came to 34 °C.

Take `CCCCCCCCCO` [1-nonanol]: the flash point was found to be 98 °C.

On to `C#CCCCCCC` [1-octyne], for which the flash point was determined as 16 °C.

`C=CCCCCCCCCCCCCC` [1-pentadecene]: the flash point amounted to 113 °C.

Consider `CCCCCS` [1-pentanethiol], for which the flash point amounted to 18 °C.

Compound `CCCCCO` [1-pentanol] yielded a flash point of 49 °C.

The compound `C=CCCC` [1-pentene] gave a flash point of -51 °C.

In the case of `C#CCCC` [1-pentyne], the flash point was -34 °C.

In the case of `CCCC(=O)c1ccccc1` [1-phenyl-1-butanone], the flash point was determined as 88 °C.

The compound `CCC(=O)CCc1ccccc1` [1-phenyl-3-pentanone] displayed a flash point of 103 °C.

Compound `C#CCCCCCCCCCCC` [1-tridecyne] came in with a flash point of 93 °C.

As for `CCCCCCCCCCCO` [1-undecanol], the flash point turned out to be 115 °C.

Compound `C#CCCCCCCCCC` [1-undecyne] gave a flash point of 65 °C.

With `CCC(C)(C)C(C)(C)C` [2,2,3,3-tetramethylpentane], the flash point is 16 °C.

`CCC(C)C(C)C(C)(C)C` (stereo not given) [2,2,3,4-tetramethylhexane] returned a flash point of 31 °C.

`CC(C)C(C)(C)C` [2,2,3-trimethylbutane] returned a flash point of -24 °C.

On to `CC(CC(C)(C)C)CC(C)(C)CC(C)(C)C` (stereo not given) [2,2,4,4,6,8,8-heptamethylnonane], for which the flash point came to 95 °C.

In turn, `CC(C)(C)CC(C)(C)C` [2,2,4,4-tetramethylpentane] had a flash point of 6 °C.

For `CC(C)CCC(C)(C)C` [2,2,5-trimethylhexane], the flash point was 13 °C.

With `CC(C)(Cl)Cl` [2,2-dichloropropane], the flash point is -5 °C.

`CCC(C)(C)C` [2,2-dimethylbutane] registered a flash point of -29 °C.

For the compound `CC1(C)CCCC1=O` [2,2-dimethylcyclopentanone], the flash point amounted to 33 °C.

As to `CCCCCC(C)(C)C` [2,2-dimethylheptane], the flash point amounted to 24 °C.

As for `C=C(C)C(C)(C)C` [2,3,3-trimethyl-1-butene], the flash point was -17 °C.

For the compound `CCCC(C)(C)C(C)C` [2,3,3-trimethylhexane], the flash point stood at 15 °C.

Consider `CC(C)C(C)C(C)C(C)C` (stereo not given) [2,3,4,5-tetramethylhexane], for which the flash point was determined as 31 °C.

For the compound `CC(C)C(C)C(C)C` [2,3,4-trimethylpentane], the flash point is -0 °C.

As for `CC(C)CC(C)C(C)C` (stereo not given) [2,3,5-trimethylhexane], the flash point came to 15 °C.

In turn, `CC(=O)C(C)=O` [2,3-butanedione] registered a flash point of 10 °C.

`OCC(Cl)CCl` (stereo not given) [2,3-dichloro-1-propanol] gave a flash point of 93 °C.

For `CC1=CCCO1` [2,3-dihydro-5-methylfuran], the flash point is -12 °C.

In turn, `C1=COCC1` [2,3-dihydrofuran] had a flash point of -24 °C.

`C=C(C)C(C)CC` (stereo not given) [2,3-dimethyl-1-pentene] showed a flash point of -17 °C.

Compound `Cc1cccc(N)c1C` [2,3-dimethylaniline] displayed a flash point of 96 °C.

As for `CCCC(C)C(C)C` (stereo not given) [2,3-dimethylhexane], the flash point stood at 5 °C.

For `CCCCCC(C)C(C)C` (stereo not given) [2,3-dimethyloctane], the flash point stood at 36 °C.

Take `CCC(C)(C)CC(C)C` [2,4,4-trimethylhexane]: the flash point came out at 15 °C.

Regarding `CC(C)CC(C)CC(C)C` [2,4,6-trimethylheptane], the flash point came to 31 °C.

`Cc1cc(C)nc(C)c1` [2,4,6-trimethylpyridine] came in with a flash point of 54 °C.

The compound `CCCC(C)CC(C)C` (stereo not given) [2,4-dimethylheptane] showed a flash point of 15 °C.

Turning to `Cc1ccc(O)c(C)c1` [2,4-dimethylphenol], the flash point was 94 °C.

In turn, `Cc1ccnc(C)c1` [2,4-dimethylpyridine] returned a flash point of 47 °C.

Take `CC(=O)CC(C)=O` [2,4-pentanedione]: the flash point turned out to be 38 °C.

The compound `CCC(C)CCC(C)C` (stereo not given) [2,5-dimethylheptane] showed a flash point of 15 °C.

Consider `CC(=O)CCC(C)=O` [2,5-hexanedione], for which the flash point worked out at 78 °C.

The compound `CC(C)CCCC(C)C` [2,6-dimethylheptane] came in with a flash point of 26 °C.

On to `CCC(C)S` (stereo not given) [2-butanethiol], for which the flash point was -23 °C.

Regarding `CCCCOCCO` [2-butoxyethanol], the flash point is 62 °C.

`CCCCOCCOC(C)=O` [2-butoxyethylacetate] showed a flash point of 71 °C.

`CC1=CC2C(CC1)C2(C)C` (stereo not given) [2-carene]: the flash point is 38 °C.

Compound `CC(Cl)CO` (stereo not given) [2-chloro-1-propanol] had a flash point of 51 °C.

`CCC(C)Cl` (stereo not given) [2-chlorobutane] returned a flash point of -15 °C.

Take `OCCCl` [2-chloroethanol]: the flash point amounted to 55 °C.

In turn, `O=C1C=CCCC1` [2-cyclohexen-1-one] returned a flash point of 56 °C.

`CCCCCCCCC(C)O` (stereo not given) [2-decanol] came in with a flash point of 85 °C.

As for `CCCCCCCCCCC(C)=O` [2-dodecanone], the flash point came out at 108 °C.

For `CC#CCCCCCCCCC` [2-dodecyne], the flash point came to 78 °C.

In turn, `CCOCCOC(C)=O` [2-ethoxyethylacetate] yielded a flash point of 51 °C.

As for `CCc1cc(C)ccc1C` [2-ethyl-1,4-dimethylbenzene], the flash point came to 56 °C.

Regarding `C=C(CC)CC` [2-ethyl-1-butene], the flash point is -26 °C.

In the case of `CCCCC(CC)CN` (stereo not given) [2-ethyl-1-hexanamine], the flash point is 50 °C.

Compound `C=C(CC)CCC` [2-ethyl-1-pentene] registered a flash point of -10 °C.

On to `CCc1ccccc1N` [2-ethylaniline], for which the flash point is 85 °C.

`CCC(C=O)CC` [2-ethylbutanal] showed a flash point of 21 °C.

Compound `CCC1CCCCCC1=O` (stereo not given) [2-ethylcycloheptanone] had a flash point of 71 °C.

As for `CCc1ccco1` [2-ethylfuran], the flash point was -2 °C.

Compound `CCCCC(C=O)CC` (stereo not given) [2-ethylhexanal] showed a flash point of 46 °C.

The compound `C=CC(=O)OCC(CC)CCCC` (stereo not given) [2-ethylhexylacrylate] showed a flash point of 86 °C.

For the compound `CCc1cccs1` [2-ethylthiophene], the flash point amounted to 21 °C.

In turn, `CCCCCC(C)=O` [2-heptanone] returned a flash point of 39 °C.
